The values that follow come from publication PMC6502695 (Natural product research, 2018).

Holding throughout (assay type): in vitro ADME
Series [1] is described as follows: Sulfating activity of human small intestine cytosol. Particulars: mean ± SD, three experiments.
The next series addresses human SULT 1A3 (Homo sapiens, UniProt P0DMM9). The experiment in a line: Sulfating activity of purified human SULT1A3.
In another series the target is human SULT 1A1 (Homo sapiens, UniProt P50225). The series can be described thus: Sulfating activity of purified human SULT1A1. Particulars: substrate 10 μM, mean ± SD, three experiments.
Sequence of human SULT 1A1 (P50225 whole entry): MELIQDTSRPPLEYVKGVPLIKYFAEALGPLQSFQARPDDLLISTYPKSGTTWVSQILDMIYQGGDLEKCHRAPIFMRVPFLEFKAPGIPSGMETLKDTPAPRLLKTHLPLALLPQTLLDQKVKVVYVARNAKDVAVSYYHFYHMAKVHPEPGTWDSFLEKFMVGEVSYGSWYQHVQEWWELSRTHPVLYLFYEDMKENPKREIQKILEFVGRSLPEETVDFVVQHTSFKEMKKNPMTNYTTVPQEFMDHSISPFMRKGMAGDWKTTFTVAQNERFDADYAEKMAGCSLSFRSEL
Another series has as its target human SULT 1A2 (Homo sapiens, UniProt P50226). The series can be described thus: Sulfating activity of purified human SULT1A2. The note with it: substrate 10 μM, mean ± SD, three experiments.
Another series has as its target human SULT 1C4 (Homo sapiens, UniProt O75897). The experiment in a line: Sulfating activity of purified human SULT1C4. The note with it: substrate 10 μM, mean ± SD, three experiments.
Series [2] can be described thus: Sulfating activity of human liver cytosol. Particulars: mean ± SD, three experiments.
Where [3] appears, read: SULT 1A3, substrate 10 μM, mean ± SD, three experiments.

Sequence of human SULT 1C4 (O75897 whole entry): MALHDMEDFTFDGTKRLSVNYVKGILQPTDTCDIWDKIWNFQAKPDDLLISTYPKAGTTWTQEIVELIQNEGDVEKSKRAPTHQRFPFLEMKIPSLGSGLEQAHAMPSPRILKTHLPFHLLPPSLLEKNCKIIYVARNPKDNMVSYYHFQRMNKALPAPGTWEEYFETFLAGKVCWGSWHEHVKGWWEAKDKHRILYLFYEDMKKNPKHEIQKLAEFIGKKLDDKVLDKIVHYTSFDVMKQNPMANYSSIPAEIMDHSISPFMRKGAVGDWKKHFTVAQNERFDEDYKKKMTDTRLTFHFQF
Sequence of human SULT 1A3 (P0DMM9 whole entry): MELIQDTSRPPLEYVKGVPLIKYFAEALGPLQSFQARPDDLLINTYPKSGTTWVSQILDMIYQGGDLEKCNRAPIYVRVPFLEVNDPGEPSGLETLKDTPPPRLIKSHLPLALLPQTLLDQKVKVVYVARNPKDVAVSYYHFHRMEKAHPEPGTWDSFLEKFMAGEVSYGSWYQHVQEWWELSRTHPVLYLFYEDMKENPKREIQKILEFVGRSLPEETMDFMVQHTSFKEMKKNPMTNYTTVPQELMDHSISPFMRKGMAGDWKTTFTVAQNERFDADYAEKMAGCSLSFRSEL
Sequence of human SULT 1A2 (P50226 whole entry): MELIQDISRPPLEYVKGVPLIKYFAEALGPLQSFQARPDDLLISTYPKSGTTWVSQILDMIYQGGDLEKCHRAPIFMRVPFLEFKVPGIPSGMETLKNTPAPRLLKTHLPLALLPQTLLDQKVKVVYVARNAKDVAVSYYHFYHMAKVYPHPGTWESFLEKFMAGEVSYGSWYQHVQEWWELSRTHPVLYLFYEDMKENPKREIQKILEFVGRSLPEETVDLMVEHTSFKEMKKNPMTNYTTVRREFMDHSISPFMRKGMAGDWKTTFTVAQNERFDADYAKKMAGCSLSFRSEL

Take `O=c1cc(-c2ccc(O)cc2)oc2cc(O)cc(O)c12` [Apigenin]: the “Specific Activity (pmol substrate sulfated/min/mg protein)” value in series [1] (substrate 10 μM) worked out at 88.59 ± 1.07 pmol/min/mg; in series [1] (substrate 50 μM), 113.24 ± 0.32 pmol/min/mg; in series [2] (substrate 10 μM), 20.87 ± 5.39 pmol/min/mg; in series [2] (substrate 50 μM) it was 25.04 ± 2.20 pmol/min/mg. The “Specific Activity (nmol substrate sulfated/min/mg purified enzyme)” value turned out to be 6.38 ± 0.40 nmol/min/mg on human SULT 1A3 (setting [3]), 10.67 ± 0.99 nmol/min/mg at human SULT 1A1, 7.90 ± 0.32 nmol/min/mg on human SULT 1A2 and 3.58 ± 0.09 nmol/min/mg on human SULT 1C4.

Turning to `COc1ccc([C@@H]2CC(=O)c3c(O)cc(O)cc3O2)cc1O` [Hesperetin], the “Specific Activity (pmol substrate sulfated/min/mg protein)” value stood at 458.26 ± 11.82 pmol/min/mg in series [1] (substrate 10 μM), 643.61 ± 45.12 pmol/min/mg in series [1] (substrate 50 μM), 139.79 ± 6.87 pmol/min/mg in series [2] (substrate 10 μM) and 181.73 ± 13.25 pmol/min/mg in series [2] (substrate 50 μM). Further, the “Specific Activity (nmol substrate sulfated/min/mg purified enzyme)” value at human SULT 1A3 (setting [3]) was found to be 29.80 ± 0.74 nmol/min/mg; on human SULT 1A1, 44.17 ± 1.16 nmol/min/mg; at human SULT 1A2, 28.16 ± 0.38 nmol/min/mg; at human SULT 1C4 it was 13.34 ± 0.49 nmol/min/mg.

On to `O=C1C[C@@H](c2ccc(O)cc2)Oc2cc(O)cc(O)c21` [Naringenin], for which the “Specific Activity (pmol substrate sulfated/min/mg protein)” value in series [1] (substrate 10 μM) came to 252.86 ± 13.22 pmol/min/mg; in series [1] (substrate 50 μM), 354.21 ± 13.98 pmol/min/mg; in series [2] (substrate 10 μM) it was 135.32 ± 15.67 pmol/min/mg; in series [2] (substrate 50 μM) it was 156.97 ± 17.94 pmol/min/mg. Moreover, the “Specific Activity (nmol substrate sulfated/min/mg purified enzyme)” value on human SULT 1A3 (human, 10 μM) is recorded as 14.90 ± 0.15 nmol/min/mg; on human SULT 1A1, 24.85 ± 0.65 nmol/min/mg; at human SULT 1A2, 17.51 ± 0.31 nmol/min/mg; on human SULT 1C4, 11.99 ± 0.17 nmol/min/mg.
